# Source: patent US9321722B2, “Bis-indolic derivatives, their uses in particular as antibacterials” (UNIVERSITE JOSEPH FOURIER, priority 2011, dated 2016)
# Tests used:
# Assay type in all cases: cell-based
# [1] = test system: MRC5 (human lung fibroblast); assay: In vitro cytotoxicity; conditions: for inhibition at 10 µM: MRC5, 10^−5 M, read-out: % of cellular growth inhibition; for inhibition at 1 µM: MRC5, 10^−6 M, read-out: % of cellular growth inhibition (converted)
# Procedure: (§1) In vitro cytotoxicity was assayed on three cell lines—KB (human mouth carcinoma), MCR5 (human lung fibroblast) and HCT116 (human colon tumor). Results are presented in table III as % of cellular growth inhibition in presence of 10^−5 M and 10^−6 M of the tested bis-indolic derivatives.
# [2] = test system: HCT116 (human colon tumor); assay: In vitro cytotoxicity; conditions: for inhibition at 10 µM: HCT-116, HCT116, 10^−5 M, read-out: % of cellular growth inhibition; for inhibition at 1 µM: HCT-116, HCT116, 10^−6 M, read-out: % of cellular growth inhibition (converted)
# Procedure: as §1
# [3] = test system: KB (human mouth carcinoma); assay: In vitro cytotoxicity; conditions: KB; for inhibition at 10 µM: 10^−5 M, read-out: % of cellular growth inhibition; for inhibition at 1 µM: 10^−6 M, read-out: % of cellular growth inhibition (converted)
# Procedure: as §1
# [4] = test system: Staphylococcus aureus 1199B (overexpression of the NorA efflux pump); assay: Efflux pump inhibition assay with sub-inhibitory ciprofloxacin; conditions: in the presence of ciprofloxacin 4 mg/L (MIC/4)
# Procedure: The efflux pump inhibition potential of the bis-indolic derivatives was tested using two steps. In a first step, the intrinsic antibacterial activity of the compounds was assayed against the following strains:
# The following experimental protocol was used: indolic derivatives (initially solubilised in DMSO at 10 mg/mL) were dispensed in a 96-wells microplate by two fold serial dilutions in Muller-Hinton medium (MH, Bio Rad) using a Biomek 2000 (Beckman) handling robot. 100 μL of the bacterial inoculum (an overnight culture at 37° C. in 5 mL MH diluted 100-fold) was then added in each well. The total volume was 200 μL in each well and the final bacteria concentration 10^6 CFU/mL (CFU: colony forming unit). The highest final indolic derivative concentration was 128 mg/L. Growth was assayed with a microplate reader by monitoring absorption at 620 nm after 1, 2, 5, 7 and 24 h incubation at 37° C. In addition, the plates were read visually after 24 hours incubation. Cultures containing 5 μL DMSO were used as growth controls. In addition, two controls containing a sub-inhibitory or a inhibitory antibiotic concentration for the tested strain were performed. The antibiotics used were ampicillin (0.5 and 32 μg/mL) for E. coli, kanamycin (0.5 and 16 μg/mL) for S. aureus ATCC 25923, ciprofloxacin (4 and 64 mg/L) for S. aureus 1199B, ciprofloxacin (0.5 and 2 mg/L) for S. aureus K2378. All experiments were performed in duplicate.
# Efflux pump inhibition assays were then performed against resistant Staphylococcus aureus strains SA 1199B and SA K2378 for bis-indolic derivatives. […] The minimal inhibitory concentration (MIC) of the bis-indolic compound allowing a complete inhibition of the bacterial growth in the presence of ciprofloxacin was determined.
# E. faecalis ATCC 29212 = assay: MIC microdilution (Table I-1); conditions: Enterococcus faecalis, ATCC29212, read after 18 hours, read-out: MIC
# Procedure: (§2) The microdilution method recommended by the Clinical and Laboratory Standard Institute [M07-A8, Vol. 29, N^o 2] was used. The activity of indolic compounds was tested against 29 bacterial strains belonging to 17 different species and 12 different genera (Staphylococcus, Streptococcus, Enterococcus, Listeria, Bacillus, Haemophilus, Escherichia, Klebsiella, Enterobacter, Serratia, Pseudomonas, and Acinetobacter). Bacterial inocula were prepared in Mueller Hinton broth (MH2, bioMerieux, Marcy L'Etoile, France), supplemented with 10% sheep blood for fastidious species (i.e., Streptococcus pneumoniae and Haemophilus influenzae). They were dispensed in 96 well microtiter plates (5×10^5 CFU/ml of final inoculum). Indolic compounds were added to the wells as to obtain two-fold serial concentrations (0.50-128 mg/L of final concentrations). Plates were incubated at 37° C. in ambient air, or at 37° C. in 5% CO2 enriched atmosphere for fastidious species. […] Drug-free cultures served as growth controls. Cultures receiving gentamicin, ciprofloxacin or cefotaxime served as positive controls.
# S. aureus ATCC 25923 = assay: MIC microdilution (Table I-1); conditions: Staphylococcus aureus, ATCC25923, read after 18 hours
# Procedure: as §2
# [5] = test system: Listeria innocua CIP 80.11; assay: MIC microdilution (Table I-1); conditions: CIP80, read after 18 hours, read-out: MIC
# Procedure: as §2
# [6] = test system: Acinetobacter baumanii ATCC 19606; assay: MIC microdilution (Table I-1); conditions: Acinetobacter baumannii, ATCC19606, read after 18 hours
# Procedure: as §2
# [7] = test system: Escherichia coli ATCC 25922; assay: MIC microdilution (Table I-1); conditions: ATCC25922, read after 18 hours
# Procedure: as §2
# [8] = test system: Haemophilus influenzae ATCC 49766; assay: MIC microdilution (Table I-1); conditions: ATCC49766; Haemophilus influenzae ATCC 49766; read after 18 hours; read-out: MIC
# Procedure: as §2
# S. mitis CIP 103335 = assay: MIC microdilution (Table I-1); conditions: Streptococcus mitis, CIP103335, read after 18 hours, read-out: MIC
# Procedure: as §2
# [9] = test system: S. pyogenes (group A) CIP 104226; assay: MIC microdilution (Table I-1); conditions: Streptococcus pyogenes, CIP104226, read after 18 hours, read-out: MIC
# Procedure: as §2
# [10] = test system: S. agalactiae (group B) ATCC 12400; assay: MIC microdilution (Table I-1); conditions: Streptococcus agalactiae, ATCC12400, read after 18 hours, read-out: MIC
# Procedure: as §2
# E. faecium CIP 54.32 = assay: MIC microdilution (Table I-1); conditions: Enterococcus faecium, CIP54, read after 18 hours, read-out: MIC
# Procedure: as §2
# [11] = test system: Klebsiella pneumoniae ATCC 35657; assay: MIC microdilution (Table I-1); conditions: ATCC35657, read after 18 hours, read-out: MIC
# Procedure: as §2
# [12] = test system: Serratia marcescens CIP 103551; assay: MIC microdilution (Table I-1); conditions: CIP103551, read after 18 hours
# Procedure: as §2
# S. pneumoniae ATCC 49619 = assay: MIC microdilution (Table I-1); conditions: Streptococcus pneumoniae, ATCC49619, read after 18 hours
# Procedure: as §2
# [13] = test system: Pseudomonas aeruginosa CIP 5933; assay: MIC microdilution (Table I-1); conditions: CIP5933, read after 18 hours
# Procedure: as §2
# [14] = test system: Bacillus subtilis CIP 5262; assay: MIC microdilution (Table I-1); conditions: CIP5262, read after 18 hours, read-out: MIC
# Procedure: as §2
# [15] = test system: Enterobacter cloacae ATCC 13047; assay: MIC microdilution (Table I-1); conditions: ATCC13047, read after 18 hours
# Procedure: as §2
smiles,measurement,setting,value
"O=C(C(=O)N1CCCCC1c1c[nH]c2ccccc12)c1c[nH]c2ccccc12 (centres unmarked) [Compound 6a, 1-(2-(1H-Indol-3-yl)piperidin-1-yl)-2-(1H-indol-3-yl)ethane-1,2-dione]",inhibition at 10 µM,[1],28 ± 9%
same,inhibition at 1 µM,[1],0%
same,inhibition at 10 µM,[2],37 ± 6%
same,inhibition at 1 µM,[2],0%
same,inhibition at 10 µM,[3],20 ± 13%
same,inhibition at 1 µM,[3],0%
same,"CMI, mg/L (Ciprofloxacin concentration, mg/L)",[4],<0.125 (4) mg/L
same,MIC,E. faecalis ATCC 29212,> 128 µg/mL
same,MIC,S. aureus ATCC 25923,> 128 µg/mL
same,MIC,[5],> 128 µg/mL
same,MIC,[6],> 128 µg/mL
same,MIC,[7],> 128 µg/mL
same,MIC,[8],> 128 µg/mL
same,MIC,S. mitis CIP 103335,> 128 µg/mL
same,MIC,[9],> 128 µg/mL
same,MIC,[10],> 128 µg/mL
same,MIC,E. faecium CIP 54.32,> 128 µg/mL
same,MIC,[11],> 128 µg/mL
same,MIC,[12],> 128 µg/mL
same,MIC,S. pneumoniae ATCC 49619,> 128 µg/mL
same,MIC,[13],> 128 µg/mL
same,MIC,[14],> 128 µg/mL
same,MIC,[15],> 128 µg/mL
"O=C(C(=O)N1CCOCC1c1c[nH]c2ccccc12)c1c[nH]c2ccccc12 (centres unmarked) [Compound 6b, 1-(3-(1H-Indol-3-yl)morpholino)-2-(1H-indol-3-yl)ethane-1,2-dione]",inhibition at 10 µM,[1],15 ± 11%
same,inhibition at 1 µM,[1],0%
same,inhibition at 10 µM,[2],21 ± 10%
same,inhibition at 1 µM,[2],2%
same,inhibition at 10 µM,[3],9 ± 4%
same,inhibition at 1 µM,[3],0%
same,"CMI, mg/L (Ciprofloxacin concentration, mg/L)",[4],0.5 (4) mg/L
same,MIC,E. faecalis ATCC 29212,> 128 µg/mL
same,MIC,S. aureus ATCC 25923,> 128 µg/mL
same,MIC,[5],> 128 µg/mL
same,MIC,[6],> 128 µg/mL
same,MIC,[7],> 128 µg/mL
same,MIC,[8],> 128 µg/mL
same,MIC,S. mitis CIP 103335,> 128 µg/mL
same,MIC,[9],> 128 µg/mL
same,MIC,[10],> 128 µg/mL
same,MIC,E. faecium CIP 54.32,> 128 µg/mL
same,MIC,[11],> 128 µg/mL
same,MIC,[12],> 128 µg/mL
same,MIC,S. pneumoniae ATCC 49619,> 128 µg/mL
same,MIC,[13],> 128 µg/mL
same,MIC,[14],> 128 µg/mL
same,MIC,[15],> 128 µg/mL
"CC(C)(C)OC(=O)N1CCN(C(=O)C(=O)c2c[nH]c3ccccc23)C(c2c[nH]c3ccccc23)C1 (centres unmarked) [Compound 6c, tert-Butyl 4-(2-(1H-indol-3-yl)-2-oxoacetyl)-3-(1H-indol-3-yl)piperazine-1-carboxylate]",inhibition at 10 µM,[1],6 ± 16%
same,inhibition at 1 µM,[1],0%
same,inhibition at 10 µM,[2],53 ± 3%
same,inhibition at 1 µM,[2],8%
same,inhibition at 10 µM,[3],66 ± 8%
same,inhibition at 1 µM,[3],0%
same,"CMI, mg/L (Ciprofloxacin concentration, mg/L)",[4],0.25 (4) mg/L
same,MIC,E. faecalis ATCC 29212,> 128 µg/mL
same,MIC,S. aureus ATCC 25923,> 128 µg/mL
same,MIC,[5],> 128 µg/mL
same,MIC,[6],> 128 µg/mL
same,MIC,[7],> 128 µg/mL
same,MIC,[8],> 128 µg/mL
same,MIC,S. mitis CIP 103335,> 128 µg/mL
same,MIC,[9],> 128 µg/mL
same,MIC,[10],> 128 µg/mL
same,MIC,E. faecium CIP 54.32,> 128 µg/mL
same,MIC,[11],> 128 µg/mL
same,MIC,[12],> 128 µg/mL
same,MIC,S. pneumoniae ATCC 49619,> 128 µg/mL
same,MIC,[13],> 128 µg/mL
same,MIC,[14],> 128 µg/mL
same,MIC,[15],> 128 µg/mL
"O=C(C(=O)N1CCCCC1c1c[nH]c2ccc(Br)cc12)c1c[nH]c2ccc(Br)cc12 (centres unmarked) [Compound 6d, 1-(5-Bromo-1H-indol-3-yl)-2-(2-(5-bromo-1H-indol-3-yl)piperidin-1-yl)ethane-1,2-dione]",inhibition at 10 µM,[1],0%
same,inhibition at 1 µM,[1],0%
same,inhibition at 10 µM,[2],41 ± 4%
same,inhibition at 1 µM,[2],4%
same,inhibition at 10 µM,[3],53 ± 5%
same,inhibition at 1 µM,[3],0%
same,"CMI, mg/L (Ciprofloxacin concentration, mg/L)",[4],<0.125 (4) mg/L
same,MIC,E. faecalis ATCC 29212,> 128 µg/mL
same,MIC,S. aureus ATCC 25923,> 128 µg/mL
same,MIC,[5],> 128 µg/mL
same,MIC,[6],> 128 µg/mL
same,MIC,[7],> 128 µg/mL
same,MIC,[8],> 128 µg/mL
same,MIC,S. mitis CIP 103335,> 128 µg/mL
same,MIC,[9],> 128 µg/mL
same,MIC,[10],> 128 µg/mL
same,MIC,E. faecium CIP 54.32,> 128 µg/mL
same,MIC,[11],> 128 µg/mL
same,MIC,[12],> 128 µg/mL
same,MIC,S. pneumoniae ATCC 49619,> 128 µg/mL
same,MIC,[13],> 128 µg/mL
same,MIC,[14],> 128 µg/mL
same,MIC,[15],> 128 µg/mL
